Laboratory results reported in US20020026053A1, “Novel 3-(substituted) -2- indolinones compounds and use thereof as inhibitors of protein kinase activity” (priority 1997, published 2002).

Legend:
FLK-1 receptor = assay: FLK-1 Assay (cellular/catalytic ELISA, VEGF-stimulated phosphotyrosine); type: cell-based; set-up: concentration or dose not given beside the values; settings: protocol P.110
Procedure, shortened: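 Receptor phosphotyrosine ELISA: Flk-1-expressing NIH3T3 C7#3 cells, starved overnight in 0.1% FBS medium, received compound (1:200 final dilution, 0.5% DMSO) for 2 h at 37 °C, then VEGF. Anti-FLK-1-captured receptor was probed with anti-phosphotyrosine UB40 and peroxidase/ABTS read-out, relative to cells without compound.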

PDGF-R = PDGF-R Assay (cellular ELISA, U1242 cells); type: cell-based; set-up: concentration or dose not given beside the values; settings: protocol P.119
Procedure, shortened: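 Cellular ELISA for receptor autophosphorylation: after 2 hr test-compound treatment of serum-free U1242 cells at 37°C, ligand is added for 5–10 min, cells are lysed (HNTG) and receptor captured by specific antibody. Anti-phosphotyrosine plus secondary antibody with ABTS colour read at 410/630 nm, compared with compound-free control cells.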

Compound | Flk Kinase % Inhibition (P.110) (FLK-1 receptor) | PDGF Kinase % Inhibition (P.119) (PDGF-R)
Cc1ccc(C)c(C=C2C(=O)Nc3c(Br)cc(Br)c(C)c32)c1 [10737/H07] | 15.5% | −17.7%
Cc1c(Br)cc(Br)c2c1C(=Cc1ccc(Oc3ccccc3)cc1)C(=O)N2 [10737/H09] | 5.5% | −11.7%
Cc1c(Br)cc(Br)c2c1C(=Cc1cccc(Oc3ccc(C(C)(C)C)cc3)c1)C(=O)N2 [10737/H10] | 10.5% | −12.9%
Cc1c(Br)cc(Br)c2c1C(=Cc1ccc3ccccc3c1)C(=O)N2 [10737/H08] | 10.0% | −26.9%
Cc1c(Br)cc(Br)c2c1C(=Cc1cccc(Oc3cccc(C(F)(F)F)c3)c1)C(=O)N2 [10737/H11] | 14.5% | −16.5%
Cc1ccc(Oc2cccc(C=C3C(=O)Nc4c(Br)cc(Br)c(C)c43)c2)cc1 [10738/H02] | −14.6% | –
O=C1Nc2ccc(I)cc2C1=Cc1cc(O)cc(O)c1 [10738/B07] | −22.7% | –
CNS(=O)(=O)c1ccc2c(c1)C(=Cc1cccc(O)c1O)C(=O)N2 [10738/D06] | −26.7% | –
COc1ccccc1C=C1C(=O)Nc2ccc(Br)c(C)c21 [10738/C09] | 4.5% | –
COc1ccc(C=C2C(=O)Nc3ccc(CCCl)cc32)cc1O [10738/G04] | −57.2% | –
